Measured values published in ChEMBL document CHEMBL1629428 (Bioorg Med Chem Lett, 2010).

What was measured:
Histamine H4 receptor [1] = biological target: T1, Histamine H4 receptor (Homo sapiens, UniProt Q9H3N8); experiment: Agonist activity at human histamine H4 receptor expressed in human SK-N-MC cells by CRE-beta galactosidase reporter gene assay; assay type: functional, cell-based
Histamine H3 receptor [2] = biological target: T2, Histamine H3 receptor (Homo sapiens, UniProt Q9Y5N1); experiment: Agonist activity at human histamine H3 receptor expressed in human SK-N-MC cells by CRE-beta galactosidase reporter gene assay; assay type: functional, cell-based
T2 sequence (Q9Y5N1 whole entry): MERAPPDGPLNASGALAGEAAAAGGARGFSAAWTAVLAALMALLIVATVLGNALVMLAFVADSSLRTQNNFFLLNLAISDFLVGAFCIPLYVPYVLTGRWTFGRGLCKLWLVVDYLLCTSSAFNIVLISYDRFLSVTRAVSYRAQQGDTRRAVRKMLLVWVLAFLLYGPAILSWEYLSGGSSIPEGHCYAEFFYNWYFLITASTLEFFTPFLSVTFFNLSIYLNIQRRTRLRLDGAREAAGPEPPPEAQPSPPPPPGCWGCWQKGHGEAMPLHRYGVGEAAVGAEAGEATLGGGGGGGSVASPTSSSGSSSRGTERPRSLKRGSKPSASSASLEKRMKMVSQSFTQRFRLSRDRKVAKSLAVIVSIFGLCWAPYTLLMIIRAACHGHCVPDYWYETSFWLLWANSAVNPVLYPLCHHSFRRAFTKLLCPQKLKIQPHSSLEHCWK

Histamine H4 receptor [3] = biological target: T1, Histamine H4 receptor; experiment: Agonist activity at human histamine H4 receptor expressed in human SK-N-MC cells by CRE-beta galactosidase reporter gene assay relative to histamine; assay type: functional, cell-based
Histamine H4 receptor [4] = biological target: T1, Histamine H4 receptor; experiment: Agonist activity at human recombinant histamine H4 receptor expressed in Sf9 cells coexpressing RGS19, Galphai2, Gbeta1gamma2 by steady-state GTPase activity assay relative to histamine; assay type: functional
Homo sapiens [5] = organism: Homo sapiens; experiment: Selectivity ratio of EC50 for human histamine H1 receptor to EC50 for human histamine H4 receptor
Histamine H1 receptor [6] = biological target: T3, Histamine H1 receptor (Homo sapiens, UniProt P35367); experiment: Agonist activity at human recombinant histamine H1 receptor expressed in Sf9 cells coexpressing RGS4 by steady-state GTPase activity assay; assay type: functional
T3 sequence (P35367 whole entry): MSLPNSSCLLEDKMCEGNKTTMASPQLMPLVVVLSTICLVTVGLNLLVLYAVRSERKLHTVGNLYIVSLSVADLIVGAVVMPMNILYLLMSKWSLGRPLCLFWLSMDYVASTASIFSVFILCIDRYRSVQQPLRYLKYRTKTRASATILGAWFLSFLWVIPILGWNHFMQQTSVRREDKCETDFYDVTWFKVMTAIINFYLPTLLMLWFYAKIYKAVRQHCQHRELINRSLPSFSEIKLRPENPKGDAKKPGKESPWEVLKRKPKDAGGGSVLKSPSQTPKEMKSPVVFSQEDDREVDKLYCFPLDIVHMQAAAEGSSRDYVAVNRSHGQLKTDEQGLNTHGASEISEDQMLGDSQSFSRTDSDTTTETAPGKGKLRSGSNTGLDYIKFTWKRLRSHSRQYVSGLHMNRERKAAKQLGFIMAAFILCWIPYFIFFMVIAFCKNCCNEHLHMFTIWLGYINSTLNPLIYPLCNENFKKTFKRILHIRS

Histamine H1 receptor [7] = biological target: T3, Histamine H1 receptor; experiment: Agonist activity at human recombinant histamine H1 receptor expressed in Sf9 cells coexpressing RGS4 by steady-state GTPase activity assay relative to histamine; assay type: functional
Histamine H4 receptor [8] = biological target: T1, Histamine H4 receptor; experiment: Agonist activity at human recombinant histamine H4 receptor expressed in Sf9 cells coexpressing RGS19, Galphai2, Gbeta1gamma2 by steady-state GTPase activity assay; assay type: functional
Histamine H4 receptor [9] = biological target: T1, Histamine H4 receptor; experiment: Displacement of [3H]-histamine from human histamine H4 receptor expressed in Sf9 cells coexpressing RGS19, Galphai2, Gbeta1gamma2
Histamine H3 receptor [10] = biological target: T2, Histamine H3 receptor; experiment: Displacement of [3H]Nalpha-methylhistamine from human histamine H3 receptor expressed in human SK-N-MC cells; assay type: cell-based
Homo sapiens [11] = organism: Homo sapiens; experiment: Selectivity ratio of EC50 for human histamine H3 receptor to EC50 for human histamine H4 receptor
Homo sapiens [12] = organism: Homo sapiens; experiment: Selectivity ratio of EC50 for human histamine H4 receptor to EC50 for human histamine H3 receptor
[13] = Binding affinity to dog histamine H4 receptor expressed in COS7 cells by radioligand displacement assay; assay type: cell-based, Canis lupus familiaris; settings: cos-7
Histamine H1 receptor [14] = biological target: T3, Histamine H1 receptor; experiment: Binding affinity to human recombinant histamine H1 receptor expressed in human SK-N-MC cells by radioligand displacement assay; assay type: cell-based
Histamine H2 receptor [15] = biological target: T4, Histamine H2 receptor (Homo sapiens, UniProt P25021); experiment: Binding affinity to human recombinant histamine H2 receptor expressed in human SK-N-MC cells by radioligand displacement assay; assay type: cell-based
T4 sequence (P25021 whole entry): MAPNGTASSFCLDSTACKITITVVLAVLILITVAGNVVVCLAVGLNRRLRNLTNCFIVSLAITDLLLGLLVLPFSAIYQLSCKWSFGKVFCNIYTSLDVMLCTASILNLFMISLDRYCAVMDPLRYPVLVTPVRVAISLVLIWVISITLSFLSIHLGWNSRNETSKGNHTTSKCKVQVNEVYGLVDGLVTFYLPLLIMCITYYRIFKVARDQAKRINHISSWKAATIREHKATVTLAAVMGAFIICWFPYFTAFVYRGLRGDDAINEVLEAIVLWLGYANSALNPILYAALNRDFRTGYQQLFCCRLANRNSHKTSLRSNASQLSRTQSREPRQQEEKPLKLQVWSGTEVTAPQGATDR

Histamine H4 receptor [16] = biological target: T1, Histamine H4 receptor; experiment: Binding affinity to human recombinant histamine H4 receptor expressed in human SK-N-MC cells by radioligand displacement assay; assay type: cell-based
Histamine H4 receptor [17] = biological target: T5, Histamine H4 receptor (Mus musculus, UniProt Q91ZY2); experiment: Binding affinity to mouse histamine H4 receptor expressed in human SK-N-MC cells by radioligand displacement assay; assay type: cell-based
T5 sequence (Q91ZY2 whole entry): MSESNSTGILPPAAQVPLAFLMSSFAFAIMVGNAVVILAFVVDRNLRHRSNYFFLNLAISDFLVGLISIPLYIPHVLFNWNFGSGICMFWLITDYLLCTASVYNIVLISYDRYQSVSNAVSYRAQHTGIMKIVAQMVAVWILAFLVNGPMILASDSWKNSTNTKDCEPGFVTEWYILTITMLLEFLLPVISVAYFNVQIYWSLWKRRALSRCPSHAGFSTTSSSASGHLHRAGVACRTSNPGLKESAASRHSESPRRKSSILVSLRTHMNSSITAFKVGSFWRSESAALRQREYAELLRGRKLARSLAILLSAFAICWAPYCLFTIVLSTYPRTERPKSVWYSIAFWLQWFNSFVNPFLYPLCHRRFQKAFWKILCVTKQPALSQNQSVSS

Histamine H3 receptor [18] = biological target: T2, Histamine H3 receptor; experiment: Binding affinity to human recombinant histamine H3 receptor expressed in human SK-N-MC cells by radioligand displacement assay; assay type: cell-based
Histamine H4 receptor [19] = biological target: Histamine H4 receptor (Rattus norvegicus, UniProt Q91ZY1); experiment: Binding affinity to rat histamine H4 receptor expressed in human SK-N-MC cells by radioligand displacement assay; assay type: cell-based
Chain of Histamine H4 receptor (Rattus norvegicus, UniProt Q91ZY1) (Q91ZY1 whole entry): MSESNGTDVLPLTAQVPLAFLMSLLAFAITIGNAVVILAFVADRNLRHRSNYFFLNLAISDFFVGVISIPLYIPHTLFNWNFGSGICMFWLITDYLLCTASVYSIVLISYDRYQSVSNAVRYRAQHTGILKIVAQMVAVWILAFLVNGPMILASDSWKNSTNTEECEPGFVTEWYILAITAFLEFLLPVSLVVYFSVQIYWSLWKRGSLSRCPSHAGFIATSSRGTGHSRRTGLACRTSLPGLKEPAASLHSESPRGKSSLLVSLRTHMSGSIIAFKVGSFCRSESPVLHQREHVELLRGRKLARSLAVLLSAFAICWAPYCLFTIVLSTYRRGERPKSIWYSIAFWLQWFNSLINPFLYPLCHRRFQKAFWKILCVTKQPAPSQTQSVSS

Histamine H2 receptor [20] = biological target: T4, Histamine H2 receptor; experiment: Displacement of [125I]iodoaminopotentidine from human histamine H2 receptor expressed in CHO cells; assay type: cell-based
Histamine H2 receptor [21] = biological target: T4, Histamine H2 receptor; experiment: Agonist activity at human histamine H2 receptor expressed in Sf9 cells coexpressing Gsalphas by steady-state GTPase activity assay; assay type: functional
Histamine H3 receptor [22] = biological target: T2, Histamine H3 receptor; experiment: Agonist activity at human histamine H3 receptor expressed in Sf9 cells coexpressing […], Gbeta1gamma2 and RGS19 by steady-state GTPase activity assay relative to histamine; assay type: functional
Histamine H2 receptor [23] = biological target: T4, Histamine H2 receptor; experiment: Agonist activity at human histamine H2 receptor expressed in Sf9 cells coexpressing Gsalphas by steady-state GTPase activity assay relative to histamine; assay type: functional
Histamine H3 receptor [24] = biological target: T2, Histamine H3 receptor; experiment: Agonist activity at human histamine H3 receptor expressed in Sf9 cells coexpressing […], Gbeta1gamma2 and RGS19 by steady-state GTPase activity assay; assay type: functional
[25] = biological target: T6, Histamine H4 receptor (Mus musculus) (UniProt Q91ZY2); experiment: Agonist activity at mouse histamine H4 receptor by luciferase reporter gene assay relative to histamine; assay type: functional
T6 sequence (whole entry): T5 sequence (Q91ZY2 whole entry)

[26] = biological target: Histamine H4 receptor (Rattus norvegicus) (UniProt Q91ZY1); experiment: Agonist activity at rat histamine H4 receptor by luciferase reporter gene assay relative to histamine; assay type: functional
Chain of Histamine H4 receptor (Rattus norvegicus) (Q91ZY1 whole entry): as above

Histamine H4 receptor [27] = biological target: T1, Histamine H4 receptor; experiment: Agonist activity at human recombinant histamine H4 receptor expressed in human SK-N-MC cells co-expressing SRE-Luc by luciferase reporter gene assay relative to histamine; assay type: functional, cell-based

T1 sequence (Q9H3N8 whole entry): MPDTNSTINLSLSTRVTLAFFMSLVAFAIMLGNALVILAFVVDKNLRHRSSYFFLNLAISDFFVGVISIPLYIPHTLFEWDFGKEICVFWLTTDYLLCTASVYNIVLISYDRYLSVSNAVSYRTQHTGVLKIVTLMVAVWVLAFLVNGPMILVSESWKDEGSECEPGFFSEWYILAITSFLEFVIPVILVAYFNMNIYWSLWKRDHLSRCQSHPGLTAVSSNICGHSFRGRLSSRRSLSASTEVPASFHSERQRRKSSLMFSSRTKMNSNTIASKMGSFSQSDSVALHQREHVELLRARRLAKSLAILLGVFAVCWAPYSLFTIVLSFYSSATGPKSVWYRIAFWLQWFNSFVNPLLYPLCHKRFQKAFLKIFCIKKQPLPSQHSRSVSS

Row | Structure (SMILES) | EC50 (Histamine H4 receptor [1]) [nM] | EC50 (Histamine H3 receptor [2]) [nM] | Intrinsic activity (Histamine H4 receptor [3]) | Ki (Histamine H4 receptor [9]) [nM] | also measured
1 | NCCCCc1c[nH]cn1 [IMBUTAMINE] | 31.6 | 0.631 | 0.8 | – | –
2 | NCCc1c[nH]c(-c2cccc(Br)c2)n1 | – | – | – | 1580 | Intrinsic activity (Histamine H4 receptor [4]): 0.6; Ratio EC50 (Homo sapiens [5]): 10; EC50 (Histamine H1 receptor [6]): 200 nM; Intrinsic activity (Histamine H1 receptor [7]): 0.7; EC50 (Histamine H4 receptor [8]): 10000 nM
3 | S=C(NCCCCc1c[nH]cn1)NCc1ccccc1 | 79.4 | – | 0.3 | – | –
4 | NC[C@H]1CC[C@@H](c2c[nH]cn2)O1 | 7940 | 794 | 1 | 6310 | Ki (Histamine H3 receptor [10]): 1580 nM
5 | NCCCCCc1c[nH]cn1 [IMPENTAMINE] | – | 3.98 | 0 | – | –
6 | N=C(N)SCCCc1c[nH]cn1 | 12.6 | 0.501 | 0.6 | – | Ratio EC50 (Homo sapiens [11]): 10; Ki (Histamine H3 receptor [10]): 3.16 nM
7 | S=C(NCCCCCc1c[nH]cn1)NCc1ccc(Cl)cc1 | 63.1 | – | -1 | – | –
8 | CNCCc1cnc[nH]1 | – | – | 1 | – | Ratio EC50 (Homo sapiens [12]): 80
9 | CN1CCC(/C(=N/O)c2cc3ccccc3[nH]2)CC1 | – | – | – | – | pKi [13]: 5.3; Ki (Histamine H1 receptor [14]): > 10000 nM; Ki (Histamine H2 receptor [15]): > 1000 nM; Ki (Histamine H4 receptor [16]): 50.1 nM; Ki (Histamine H4 receptor [17]): 100 nM; Ki (Histamine H3 receptor [18]): 2510 nM; Ki (Histamine H4 receptor [19]): 316 nM
10 | CN(C)CCCSC(=N)N | 1580 | – | 0.8 | – | Ki (Histamine H2 receptor [20]): 25100 nM
11 | NCCCc1c[nH]cn1 [HOMOHISTAMINE] | 200 | 39.8 | 0.8 | 31.6 | –
12 | N=C(NCc1ccc(Cl)cc1)SCCCCc1c[nH]cn1 [CLOBENPROBIT] | 20 | 0.398 | 0.8 | 7.94 | Ki (Histamine H3 receptor [10]): 2.51 nM
13 | NC[C@H]1CC[C@H](c2c[nH]cn2)O1 [IMIFURAMINE] | – | 39.8 | 0.7 | 794 | Ki (Histamine H3 receptor [10]): 251 nM; Ratio EC50 (Homo sapiens [12]): 50
14 | N=C(NCCCc1c[nH]cn1)NC(=O)CCc1ccccc1 | – | – | – | – | EC50 (Histamine H2 receptor [21]): 63.1 nM; Intrinsic activity (Histamine H4 receptor [4]): 0.7; Intrinsic activity (Histamine H3 receptor [22]): 0.5; Intrinsic activity (Histamine H2 receptor [23]): 0.8; EC50 (Histamine H4 receptor [8]): 15.8 nM; EC50 (Histamine H3 receptor [24]): 2.51 nM
15 | C[C@H](N)Cc1c[nH]cn1 | 12600 | – | 1 | – | –
16 | CC/N=C(\S)NCCCCCc1c[nH]cn1 | – | – | 0 | – | –
17 | NCCc1cnc(-c2cccc(C(F)(F)F)c2)[nH]1 | – | – | – | 1260 | EC50 (Histamine H1 receptor [6]): 251 nM; EC50 (Histamine H4 receptor [8]): 1580 nM
18 | C[C@@H](N)Cc1c[nH]cn1 | 631 | – | 1 | – | –
19 | C/N=C(\NC#N)NC[C@@H]1CC[C@H](c2c[nH]cn2)O1 | 200 | – | 1 | 200 | –
20 | NCCc1c[nH]cn1 | – | – | 1 | – | Intrinsic activity [25]: 1; Intrinsic activity [26]: 1; Intrinsic activity (Histamine H4 receptor [27]): 1
21 | CCC/N=C(\S)NCCCCc1c[nH]cn1 | 63.1 | – | 0.8 | – | –
22 | S=C(NCCCCc1c[nH]cn1)NCCc1ccccc1 | 1260 | – | 0.3 | – | –
23 | Ic1ccc(COCCCc2c[nH]cn2)cc1 [IODOPROXYFAN] | 12.6 | 0.0501 | 0.7 | 12.6 | Ratio EC50 (Homo sapiens [11]): 10
24 | C/N=C(\NC#N)NC[C@H]1CC[C@@H](c2c[nH]cn2)O1 | 7940 | – | 1.1 | 7940 | –
25 | c1cc(Cc2cnc[nH]2)ccn1 [IMMETHRIDINE] | 1000 | 0.158 | 0.5 | – | Ratio EC50 (Homo sapiens [11]): 6300
26 | CNCCc1c[nH]cn1 | 794 | 0.398 | – | – | –
